For orientation: EC50 means the concentration giving half of the maximal effect. The low end stands for an effect from little substance, the high end for a need for much substance.

From publication PMC9886975, “Ligand recognition mechanism of the human relaxin family peptide receptor 4 (RXFP4)” (Nature Communications, 2023) come the findings set out here.

For test [1], the system named is parental CHO-K1 cells. The test is described as follows: cAMP accumulation, parental CHO-K1 cells. It counts as cell-based, Chinese hamster. Particulars: Supplementary Fig. 2e–g. In general terms: Changes in cAMP serve as a functional read-out for many G protein-coupled receptors.
Test [2] concerns the target T1, RXFP4 T121A (Homo sapiens, UniProt Q8TDU9, T121A).
T1 construct: RXFP4(1-374)-; expressed in transfected cells; host or cells: HEK293T, transient (pCMV6)
Kind of test: cAMP accumulation, RXFP4 T121A. The format is cell-based. As to conditions: HEK293T. The text has this: (§1) The full-length human RXFP4 (NCBI Reference Sequence: NM_181885.3) was cloned into a modified pFastBac vector (Invitrogen) with HA signal peptide to enhance receptor expression, followed by a 10× histidine tag and BRIL insertion at the N terminus. LgBiT subunit (Promega) was fused at the C terminus of RXFP4 connected by a 15-amino acid polypeptide linker. […] The engineered human Gαi2, Gβ1, bovine Gγ2, and scFv16 were cloned into the pFastBac vector (Invitrogen), respectively. For cAMP accumulation assay, human RXFP4 and RXFP3 (NCBI Reference Sequence: NM_016568.3) were cloned into pCMV6 constructs (OriGene Technologies). The mutant receptors were modified by site-directed mutagenesis in the setting of the WT constructs, with the primers designed by QuikChange Primer Design [QuickChange Primer Design (http://agilent.com.cn)] and carried out using Phanta Max Master (Vazyme). N-terminal Flag tag was added to both WT and mutant receptors for surface expression measurement. […]
(§2) CHO-K1 (ATCC, Cat#CCL-61) cells stably expressing human RXFP4 (hRXFP4-CHO) or RXFP3 (hRXFP3-CHO) were maintained in DMEM/F12 (Gibco) supplemented with 10% (v/v) fetal bovine serum (FBS) and 2 mM L-glutamine. […] Following 24 h culturing, the transfected cells were ready for detection.
(§3) Ligands were verified for their bioactivity in the beginning in hRXFP4-CHO, which were ready for use after 24 h culturing. […] The time-resolved fluorescence resonance energy transfer (TR-FRET) signals were detected by an EnVision multilabel plate reader (PerkinElmer) with the emission window ratio of 665 nm over 620 nm under 320 nm excitation. […]
(§4) Inhibition of forskolin-induced cAMP accumulation was performed in HEK293T cells transiently transfected with WT and mutant receptors. All the mutant constructs were modified by single-point mutation in the setting of the WT receptor. cAMP accumulation data were analyzed using a three-parameter logistic equation to determine pEC50 and Emax values. Emax values for mutants are defined as the window between the maximal response and vehicle control (no ligand) and expressed as a percentage of the WT. […]

Test [3] has as its target RXFP4 R208K (Homo sapiens, UniProt Q8TDU9, R208K). The test is described as follows: cAMP accumulation, RXFP4 R208K. As to conditions: HEK293T. It counts as cell-based.
Source text: as §1, §2, §3, §4

In test [4] the target is T2, RXFP4 D104A (Homo sapiens, UniProt Q8TDU9, D104A).
T2 construct: RXFP4(1-374)-; expressed in transfected cells; host or cells: HEK293T, transient (pCMV6)
T2 sequence (Q8TDU9 whole entry D104A): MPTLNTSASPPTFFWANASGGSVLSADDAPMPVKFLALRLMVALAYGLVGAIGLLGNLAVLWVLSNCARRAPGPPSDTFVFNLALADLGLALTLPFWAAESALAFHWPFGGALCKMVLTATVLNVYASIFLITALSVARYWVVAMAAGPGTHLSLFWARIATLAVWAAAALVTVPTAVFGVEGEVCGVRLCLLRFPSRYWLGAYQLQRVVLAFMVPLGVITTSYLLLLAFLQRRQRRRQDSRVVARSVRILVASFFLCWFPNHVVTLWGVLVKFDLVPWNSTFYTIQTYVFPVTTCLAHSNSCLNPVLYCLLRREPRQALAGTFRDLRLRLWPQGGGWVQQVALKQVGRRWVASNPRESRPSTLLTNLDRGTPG
The test is described as follows: cAMP accumulation, RXFP4 D104A. It counts as cell-based.
Source text: (§5) The full-length human RXFP4 (NCBI Reference Sequence: NM_181885.3) was cloned into a modified pFastBac vector (Invitrogen) with HA signal peptide to enhance receptor expression, followed by a 10× histidine tag and BRIL insertion at the N terminus. LgBiT subunit (Promega) was fused at the C terminus of RXFP4 connected by a 15-amino acid polypeptide linker. […] The engineered human Gαi2, Gβ1, bovine Gγ2, and scFv16 were cloned into the pFastBac vector (Invitrogen), respectively. For cAMP accumulation assay, human RXFP4 and RXFP3 (NCBI Reference Sequence: NM_016568.3) were cloned into pCMV6 constructs (OriGene Technologies). […]
as §2, §3

Test [5] has as its target T3, RXFP4 Q205A (Homo sapiens, UniProt Q8TDU9, Q205A).
T3 construct: RXFP4(1-374)-; expressed in transfected cells; host or cells: HEK293T, transient (pCMV6)
Kind of test: cAMP accumulation, RXFP4 Q205A. It counts as cell-based.
Source text: as §5, §2, §3

Test [6] has as its target T4, RXFP4 L118A (Homo sapiens, UniProt Q8TDU9, L118A).
T4 construct: RXFP4(1-374)-; expressed in transfected cells; host or cells: HEK293T, transient (pCMV6)
Kind of test: cAMP accumulation, RXFP4 L118A. The format is cell-based. Particulars: HEK293T.
Source text: as §5, §2, §3

Test [7] concerns the target T5, RXFP4 V122A (Homo sapiens, UniProt Q8TDU9, V122A).
T5 construct: RXFP4(1-374)-; expressed in transfected cells; host or cells: HEK293T, transient (pCMV6)
Kind of test: cAMP accumulation, RXFP4 V122A. As to conditions: HEK293T, mean ± S.E.M. It counts as cell-based.
Source text: as §5, §2, §3

RXFP4 R208K, sequence (Q8TDU9 whole entry R208K): as the sequence (Q8TDU9 whole entry D104A) above, with A104D, R208K counted along it
T1 sequence (Q8TDU9 whole entry T121A): as the sequence (Q8TDU9 whole entry D104A) above, with A104D, T121A counted along it
T3 sequence (Q8TDU9 whole entry Q205A): as the sequence (Q8TDU9 whole entry D104A) above, with A104D, Q205A counted along it
T5 sequence (Q8TDU9 whole entry V122A): as the sequence (Q8TDU9 whole entry D104A) above, with A104D, V122A counted along it
T4 sequence (Q8TDU9 whole entry L118A): as the sequence (Q8TDU9 whole entry D104A) above, with A104D, L118A counted along it

In the case of `CCOc1cc2c(cc1OC)CCN(C(=O)N1CCOCC1)[C@H]2CCc1c[nH]c2ccc(OC)cc12` [DC591053, (S)-(7-ethoxy-6-methoxy-1-(2-(5-methoxy-1H-indol-3-yl)ethyl)−3,4-dihydroisoquinolin-2(1H)-yl)(morpholino)methanone], the “reaction with parental CHO-K1 cells” value in test [1] is given as “neither reacted with RXFP3 nor parental CHO-K1 cells”. Besides, in test [2], the “decrease of potency vs WT” value stood at 20.9 fold. In addition, the EC50 in test [2] (1.5 μM forskolin, mean ± S.E.M., n = 3 or 4, N.A., not active) is 724 nM; in test [3] (1.5 μM forskolin, mean ± S.E.M., n = 3) it was 204 nM. Besides, the Emax came out at 31.53 ± 7.09 % WT in test [2] (mean ± S.E.M.) and 60.43 ± 6.52 % WT in test [3] (mean ± S.E.M.). The “response” value in test [3] is reported as “more profound reduction for DC591053 than compound 4”.

Take `CC[C@H](C)[C@@H]1NC(=O)[C@H](Cc2ccc(O)cc2)NC(=O)[C@H]([C@@H](C)CC)NC(=O)[C@H](C(C)C)NC(=O)[C@H]([C@@H](C)O)NC(=O)[C@H](CCCNC(=N)N)NC(=O)[C@H]([C@@H](C)CC)NC(=O)[C@H](Cc2ccc(O)cc2)NC(=O)[C@H](CCC(=O)O)NC(=O)[C@H](CC(C)C)NC(=O)CNC(=O)[C@@H](NC(=O)[C@H](CC(C)C)NC(=O)[C@H](CCCNC(=N)N)NC(=O)[C@@H](NC(=O)[C@H](CO)NC(=O)[C@H](CCC(=O)O)NC(=O)[C@@H](N)CCCCN)C(C)C)CSSC[C@@H]2NC(=O)[C@@H](NC(=O)[C@H](CC(C)C)NC(=O)[C@@H](NC(=O)[C@H](CCC(N)=O)NC(=O)[C@H](CC(C)C)NC(=O)[C@H](CC(=O)O)NC(=O)[C@@H](N)CCC(N)=O)[C@@H](C)O)CSSC[C@H](NC(=O)CNC(=O)[C@H](CC(=O)O)NC(=O)[C@H]([C@@H](C)O)NC2=O)C(=O)N[C@@H](CO)C(=O)N[C@@H](CCSC)C(=O)N[C@@H]([C@@H](C)O)C(=O)N[C@@H](CC(=O)O)C(=O)N[C@@H](CC(C)C)C(=O)N[C@@H](CO)C(=O)N[C@@H](C)C(=O)N[C@@H](CC(C)C)C(=O)N[C@H](C(=O)O)CSSC[C@@H](C(=O)N[C@@H](C)C(=O)N[C@@H](CO)C(=O)N[C@@H](CO)C(=O)N[C@@H](CCCNC(=N)N)C(=O)N[C@@H](Cc2c[nH]c3ccccc23)C(=O)O)NC1=O` [INSL5, insulin-like peptide 5]: the EC50 was 1.62 nM in test [4]; 3.98 nM in test [5]; 3.63 nM in test [7] (1.5 μM forskolin, n = 3). Also, the Emax is listed as 59.09 ± 6.41 % WT in test [4] (HEK293T, mean ± S.E.M.); 50.94 ± 6.54 % WT in test [5] (HEK293T, mean ± S.E.M.); 33.20 ± 3.27 % WT in test [7]. In addition, in test [6], the “response” value is “inactive”.
